Laboratory results taken from ChEMBL document CHEMBL4742387, “Condensed tricyclic compounds as protein kinase inhibitors” (2018).
The source made the active and inactive calls. The rule behind the calls is not given here.

Assays:
[1] = system: SW-620; experiment: Synergistic antiproliferative activity against human SW-620 cells assessed as reduction in cell proliferation by measuring combination index in presence of Crizotinib by MTT assay; type: functional
[2] = system: A549; experiment: Antiproliferative activity against human A549 cells assessed as reduction in cell proliferation by CellTiter-Glo luminescent cell viability assay; type: functional
[3] = system: MV4-11; experiment: Antiproliferative activity against human MV4-11 cells assessed as reduction in cell proliferation by CellTiter-Glo luminescent cell viability assay; type: functional; settings: Homo sapiens, MV4-11
[4] = system: HCT-116; experiment: Antiproliferative activity against human HCT-116 cells assessed as reduction in cell proliferation by CellTiter-Glo luminescent cell viability assay; type: functional
[5] = system: HCT-116; experiment: Synergistic antiproliferative activity against human HCT-116 cells assessed as reduction in cell proliferation by measuring combination index in presence of crizotinib by MTT assay; type: functional
[6] = system: DU-145; experiment: Synergistic antiproliferative activity against human DU-145 cells assessed as reduction in cell proliferation by measuring combination index in presence of crizotinib by MTT assay; type: functional
[7] = system: SW-620; experiment: Synergistic antiproliferative activity against human SW-620 cells assessed as reduction in cell proliferation by measuring combination index in presence of Elesclomol by MTT assay; type: functional
[8] = system: BXPC-3; experiment: Synergistic antiproliferative activity against human BXPC-3 cells assessed as reduction in cell proliferation by measuring combination index in presence of Elesclomol by MTT assay; type: functional
[9] = system: DU-145; experiment: Synergistic antiproliferative activity against human DU-145 cells assessed as reduction in cell proliferation by measuring combination index in presence of Taxol by MTT assay; type: functional
[10] = system: SW-620; experiment: Synergistic antiproliferative activity against human SW-620 cells assessed as reduction in cell proliferation by measuring combination index in presence of ABT-751 by MTT assay; type: functional
[11] = system: MDA-MB-231; experiment: Synergistic antiproliferative activity against human MDA-MB-231 cells assessed as reduction in cell proliferation by measuring combination index in presence of Elesclomol by MTT assay; type: functional
[12] = system: SW-620; experiment: Induction of apoptosis in human SW-620 cells at 0.5 to 5 uM incubated for 24 hrs by propidium iodide staining based assay; type: functional, cell-based; settings: dose 0.5-5 µM
[13] = system: SW-620; experiment: Synergistic antiproliferative activity against human SW-620 cells assessed as reduction in cell proliferation by measuring combination index in presence of Ali-sertib by MTT assay; type: functional
[14] = system: BXPC-3; experiment: Antiproliferative activity against human BXPC-3 cells assessed as reduction in cell proliferation by CellTiter-Glo luminescent cell viability assay; type: functional
[15] = target: T1, Serine/threonine-protein kinase haspin (Homo sapiens, UniProt Q8TF76); experiment: Inhibition of haspin in human SW620 cells assessed as reduction in IFNgamma-induced H3T3 phosphorylation pre-incubated for 1 hr before IFNgamma stimulation for 3 hrs by Western blot analysis; type: cell-based, SW-620
T1 sequence (Q8TF76 whole entry): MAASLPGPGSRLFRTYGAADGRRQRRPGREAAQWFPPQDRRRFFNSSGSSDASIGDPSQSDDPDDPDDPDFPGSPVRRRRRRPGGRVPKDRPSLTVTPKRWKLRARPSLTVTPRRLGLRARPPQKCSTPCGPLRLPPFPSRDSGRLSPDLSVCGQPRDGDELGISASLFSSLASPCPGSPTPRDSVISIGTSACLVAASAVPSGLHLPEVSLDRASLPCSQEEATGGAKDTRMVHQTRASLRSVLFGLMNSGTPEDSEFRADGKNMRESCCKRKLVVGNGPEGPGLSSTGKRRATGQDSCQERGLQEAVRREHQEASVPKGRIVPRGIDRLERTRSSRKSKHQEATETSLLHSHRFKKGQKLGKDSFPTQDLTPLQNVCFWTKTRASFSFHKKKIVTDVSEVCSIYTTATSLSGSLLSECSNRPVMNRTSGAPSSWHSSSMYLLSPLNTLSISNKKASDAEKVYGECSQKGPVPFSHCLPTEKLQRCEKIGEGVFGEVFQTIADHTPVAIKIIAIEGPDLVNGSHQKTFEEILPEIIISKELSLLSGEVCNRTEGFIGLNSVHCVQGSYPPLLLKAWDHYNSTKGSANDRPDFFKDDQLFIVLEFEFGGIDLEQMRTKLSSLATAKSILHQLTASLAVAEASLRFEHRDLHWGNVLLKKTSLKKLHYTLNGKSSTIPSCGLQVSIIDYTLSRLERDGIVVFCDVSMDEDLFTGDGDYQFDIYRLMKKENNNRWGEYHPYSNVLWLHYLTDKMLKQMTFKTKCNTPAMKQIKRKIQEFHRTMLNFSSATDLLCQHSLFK

[16] = system: SW-620; experiment: Antiproliferative activity against human SW-620 cells assessed as reduction in cell proliferation by CellTiter-Glo luminescent cell viability assay; type: functional; settings: Homo sapiens, SW-620
[17] = system: SW-620; experiment: Synergistic antiproliferative activity against human SW-620 cells assessed as reduction in cell proliferation by measuring combination index in presence of oxaliplatin by MTT assay; type: functional
[18] = system: SK-MEL19; experiment: Antiproliferative activity against human SK-MEL19 cells assessed as reduction in cell proliferation by CellTiter-Glo luminescent cell viability assay; type: functional
[19] = system: DU-145; experiment: Antiproliferative activity against human DU-145 cells assessed as reduction in cell proliferation by CellTiter-Glo luminescent cell viability assay; type: functional
[20] = system: HCT-116; experiment: Synergistic antiproliferative activity against human HCT-116 cells assessed as reduction in cell proliferation by measuring combination index in presence of taxol by MTT assay; type: functional
[21] = system: DU-145; experiment: Synergistic antiproliferative activity against human DU-145 cells assessed as reduction in cell proliferation by measuring combination index in presence of Ali-sertib by MTT assay; type: functional
[22] = system: HCT-116; experiment: Synergistic antiproliferative activity against human HCT-116 cells assessed as reduction in cell proliferation by measuring combination index in presence of Ali-sertib by MTT assay; type: functional
[23] = system: SK-MEL19; experiment: Synergistic antiproliferative activity against human SK-MEL19 cells assessed as reduction in cell proliferation by measuring combination index in presence of Crizotinib by MTT assay; type: functional
[24] = system: BXPC-3; experiment: Synergistic antiproliferative activity against human BXPC-3 cells assessed as reduction in cell proliferation by measuring combination index in presence of crizotinib by MTT assay; type: functional
[25] = system: A549; experiment: Synergistic antiproliferative activity against human A549 cells assessed as reduction in cell proliferation by measuring combination index in presence of Elesclomol by MTT assay; type: functional
[26] = target: T2, Serine/threonine-protein kinase haspin (Homo sapiens) (UniProt Q8TF76); experiment: Inhibition of haspin in synchronized human SW620 cells assessed as reduction in IFNgamma-induced H3T3 phosphorylation pre-incubated for 1 hr before IFNgamma stimulation for 3 hrs by Western blot analysis; type: cell-based; settings: SW-620, time 4.0 hrs
T2 sequence (whole entry): T1 sequence (Q8TF76 whole entry)

[27] = system: SW-620; experiment: Inhibition of colony formation of human SW-620 cells incubated for 11 days (Every 3 days medium is changed by fresh medium and compounds were added freshly) by crystal violet staining based assay; type: functional, cell-based
[28] = system: SK-MEL19; experiment: Synergistic antiproliferative activity against human SK-MEL19 cells assessed as reduction in cell proliferation by measuring combination index in presence of Elesclomol by MTT assay; type: functional
[29] = system: SW-620; experiment: Synergistic antiproliferative activity against human SW-620 cells assessed as reduction in cell proliferation by measuring combination index in presence of taxol by MTT assay; type: functional
[30] = target: Cyclin-dependent kinase 8 (Homo sapiens, UniProt P49336); experiment: Inhibition of CDK8 in human SW-620 cells assessed as reduction in STAT1 S727 phosphorylation pre-incubated for 1 hr before IFNgamma stimulation for 3 hrs by Western blot analysis; type: cell-based
Cyclin-dependent kinase 8, sequence (P49336 whole entry): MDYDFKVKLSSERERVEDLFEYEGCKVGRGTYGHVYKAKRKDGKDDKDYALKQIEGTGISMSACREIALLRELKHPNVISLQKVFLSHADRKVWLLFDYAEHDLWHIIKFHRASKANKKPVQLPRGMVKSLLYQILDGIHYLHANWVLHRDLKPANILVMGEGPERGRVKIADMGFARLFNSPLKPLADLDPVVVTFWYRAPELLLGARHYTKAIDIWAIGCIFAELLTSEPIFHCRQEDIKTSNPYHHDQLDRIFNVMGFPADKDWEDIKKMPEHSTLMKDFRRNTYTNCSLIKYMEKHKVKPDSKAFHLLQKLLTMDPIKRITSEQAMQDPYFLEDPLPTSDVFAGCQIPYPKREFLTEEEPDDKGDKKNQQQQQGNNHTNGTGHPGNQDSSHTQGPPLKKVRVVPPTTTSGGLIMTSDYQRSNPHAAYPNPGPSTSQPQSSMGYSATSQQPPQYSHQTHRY

[31] = system: MOLM-13; experiment: Antiproliferative activity against human MOLM-13 cells assessed as reduction in cell proliferation by CellTiter-Glo luminescent cell viability assay; type: functional; settings: Homo sapiens, MOLM-13
[32] = system: Mus musculus; experiment: Inhibition of CDK8 in athymic nude mouse xenografted with human SW-620 cells assessed as reduction in STAT1 S727 phosphorylation 5 mg/kg, po administered as single dose after 1 hr by Western blot analysis; type: functional, organism-based
[33] = system: Mus musculus; experiment: Inhibition of CDK8 in athymic nude mouse xenografted with human SW-620 cells assessed as reduction in STAT1 S727 phosphorylation 5 mg/kg, po administered as single dose after 4 hrs by Western blot analysis; type: functional, organism-based
[34] = system: SW-620; experiment: Induction of cell cycle arrest in human SW-620 cells assessed as accumulation at G2M phase at 0.5 to 5 uM incubated for 24 hrs by propidium iodide staining based assay; type: functional; settings: dose 0.5-5 µM
[35] = system: MDA-MB-231; experiment: Antiproliferative activity against human MDA-MB-231 cells assessed as reduction in cell proliferation by CellTiter-Glo luminescent cell viability assay; type: functional; settings: Homo sapiens, MDA-MB-231

GI50 [2]: 5000 nM
GI50 [3]: 115 nM
GI50 [4]: 5000 nM
GI50 [14]: 5000 nM
IC50 [15]: 1.6 nM
GI50 [16]: 3390 nM
GI50 [18]: 1250 nM
GI50 [19]: 5000 nM
INH [26]: 1.5 10^-8mol/L
EC50 [27]: 51 nM
IC50 [30]: 1.5 nM
GI50 [31]: 349 nM
GI50 [35]: 3500 nM
Compound: CCn1c(C(N)=O)cc2c1-c1ccncc1OC2(C)C
CI [1]: 0.65
CI [5]: 0.58
CI [6]: 0.44
CI [7]: 0.05
CI [8]: 0.25
CI [9]: 0.21
CI [10]: 0.18
CI [11]: 0.59
Activity [12]: Dose-dependent effect
CI [13]: 0.52
CI [17]: 0.53
CI [20]: 0.63
CI [21]: 0.65
CI [22]: 0.64
CI [23]: 0.55
CI [24]: 0.72
CI [25]: 0.63
CI [28]: 0.49
CI [29]: 0.28
inhibition [32]: Active
inhibition [33]: Active
Activity [34]: Dose-dependent effect
